According to patent US9120766B2, “Methods of making cocrystals” (Aptuit (West Lafayette), LLC, priority 2011, dated 2015):
≈ marks a conversion by molar mass, not a printed value. One block for each compound: values may come before it.

Experiments:
[1] = physchem; settings: thermodynamic from solid
[2] = Solubility estimates at ambient temperature (gravimetric or incremental solvent addition); settings: thermodynamic from solid
[3] = literature; cited from earlier work
[4] = literature (López-Nicolás 2009); cited from earlier work

- solubility ([1]; organic solvent or mixture): 30 mg/mL (≈ 95.4 mM)
SMILES: CC(=O)[C@H]1CC[C@H]2[C@@H]3CCC4=CC(=O)CC[C@]4(C)[C@H]3CC[C@]12C [Progesterone, reference compound]

SMILES: COc1cc(/C=C/c2ccc(O)cc2)cc(OC)c1 [Pterostilbene]
- solubility ([2]; ACN, organic solvent or mixture, solvent ACN, ambient temperature): > 203 mg/mL
- solubility ([2]; EtOAc, organic solvent or mixture, solvent EtOAc, ambient temperature): > 201 mg/mL
- solubility ([2]; EtOH, organic solvent or mixture, solvent EtOH, ambient temperature): 410 mg/mL (≈ 1600 mM)
- solubility ([2]; MEK, organic solvent or mixture, solvent MEK, ambient temperature (Table 1)): > 200 mg/mL
- solubility ([2]; MTBE, organic solvent or mixture, solvent MTBE, ambient temperature): > 200 mg/mL
- solubility ([2]; heptane, organic solvent or mixture, solvent Heptane, ambient temperature): < 2 mg/mL
- solubility ([2]; isopropanol/water with water content 70% and higher, aqueous with cosolvent or surfactant or cyclodextrin): ≤ 2 mg/mL
- solubility ([2]; isopropanol:water 40:60, aqueous with cosolvent or surfactant or cyclodextrin, 40:60 isopropanol to water mixture): ~22 mg/mL (≈ 85.8 mM)
- solubility ([2]; isopropyl alcohol (IPA), organic solvent or mixture, solvent IPA (isopropyl alcohol), ambient temperature): 399 mg/mL (≈ 1560 mM)
- solubility ([2]; water, solvent Water, ambient temperature): 0.02 mg/mL (≈ 0.078 mM)
- solubility ([2]; water:IPA 55:45, aqueous with cosolvent or surfactant or cyclodextrin, solvent Water:IPA 55:45, ambient temperature): 22 mg/mL (≈ 85.8 mM)
- solubility ([2]; water:IPA 60:40, aqueous with cosolvent or surfactant or cyclodextrin, solvent Water:IPA 60:40, ambient temperature): 22 mg/mL (≈ 85.8 mM)
- solubility ([2]; water:IPA 70:30, aqueous with cosolvent or surfactant or cyclodextrin, solvent Water:IPA 70:30, ambient temperature): 2 mg/mL (≈ 7.8 mM)
- solubility ([2]; water:ethanol 50:50 v/v, aqueous with cosolvent or surfactant or cyclodextrin, solvent system Water:ethanol 50:50 v/v, ambient temperature): 54 mg/mL (≈ 211 mM)
- Bioavailability [3]: poor bioavailability
- Solubility in water [4]: poor solubility in water

- solubility ([1]; organic solvent or mixture): 42 mg/mL (≈ 344 mM)
SMILES: NC(=O)c1cccnc1 [nicotinamide]

- solubility ([1]; aqueous with cosolvent or surfactant or cyclodextrin): > 324 mg/mL
SMILES: C1CNCCN1 [piperazine]
